Source: ChEMBL document CHEMBL3232928, “Fragment-to-hit-to-lead discovery of a novel pyridylurea scaffold of ATP competitive dual targeting type II topoisomerase inhibiting antibacterial agents” (J Med Chem, 2013)
≈ marks a conversion by molar mass, not a printed value.

Assays:
[1] = Antibacterial activity against fluoroquinolone-resistant Streptococcus pneumoniae D39 NCTC 7466 expressing ParE/GyrB T172A mutant assessed as growth inhibition after 18 to 24 hrs by CLSI broth microdilution method; assay type: functional
[2] = Antibacterial activity against fluoroquinolone-resistant Streptococcus pneumoniae D39 NCTC 7466 expressing ParE/GyrB K143I mutant assessed as growth inhibition after 18 to 24 hrs by CLSI broth microdilution method; assay type: functional
[3] = Antibacterial activity against fluoroquinolone-resistant Streptococcus pneumoniae D39 NCTC 7466 expressing GyrB/ParE T172A mutant assessed as growth inhibition after 18 to 24 hrs by CLSI broth microdilution method; assay type: functional
[4] = Antibacterial activity against fluoroquinolone-resistant Streptococcus pneumoniae D39 NCTC 7466 expressing GyrB T172A/ParE T172A double mutant assessed as growth inhibition after 18 to 24 hrs by CLSI broth microdilution method; assay type: functional
[5] = Antibacterial activity against fluoroquinolone-resistant Streptococcus pneumoniae D39 NCTC 7466 expressing GyrB K143A/ParE T172A double mutant assessed as growth inhibition after 18 to 24 hrs by CLSI broth microdilution method; assay type: functional
[6] = Antibacterial activity against fluoroquinolone-resistant Streptococcus pneumoniae D39 NCTC 7466 expressing GyrA S81F/ParC S79F double mutant assessed as growth inhibition after 18 to 24 hrs by CLSI broth microdilution method; assay type: functional
[7] = Antibacterial activity against fluoroquinolone-resistant Streptococcus pneumoniae D39 NCTC 7466 expressing GyrA S81Y/ParC S79F double mutant assessed as growth inhibition after 18 to 24 hrs by CLSI broth microdilution method; assay type: functional
[8] = Antibacterial activity against fluoroquinolone-resistant Streptococcus pneumoniae D39 NCTC 7466 expressing GyrA S81F/ParC S79Y double mutant assessed as growth inhibition after 18 to 24 hrs by CLSI broth microdilution method; assay type: functional
Streptococcus pneumoniae [9] = assay: microbe, parasite or virus in culture
Description: Antibacterial activity against wild type Streptococcus pneumoniae assessed as growth inhibition after 18 to 24 hrs by CLSI broth microdilution method

DNA gyrase subunit B = DNA gyrase subunit B (Staphylococcus aureus, UniProt P0A0K8); assay: Inhibition of ATPase activity in Staphylococcus aureus GyrB tetramer in presence of Escherichia coli GyrA by ammonium molybdate/malachite green-based absorbance assay
[10] = Inhibition of ATPase activity in Escherichia coli GyrA/GyrB by ammonium molybdate/malachite green-based absorbance assay
[11] = Inhibition of ATPase activity in Escherichia coli ParC/ParE by ammonium molybdate/malachite green-based absorbance assay
[12] = Inhibition of ATPase activity in Escherichia coli ParE by ammonium molybdate/malachite green-based absorbance assay
[13] = Antibacterial activity against Streptococcus pneumoniae D39 NCTC 7466 assessed as growth inhibition after 18 to 24 hrs by CLSI broth microdilution method; assay type: functional
Staphylococcus aureus [14] = assay: Antibacterial activity against methicillin-sensitive wild type Staphylococcus aureus assessed as growth inhibition after 18 to 24 hrs by CLSI broth microdilution method; assay type: functional
Staphylococcus aureus [15] = assay: Antibacterial activity against methicillin-resistant and […] Staphylococcus aureus assessed as growth inhibition after 18 to 24 hrs by CLSI broth microdilution method; assay type: functional
Moraxella catarrhalis = assay: Antibacterial activity against wild type Moraxella catarrhalis ATCC 43617 assessed as growth inhibition after 18 to 24 hrs by CLSI broth microdilution method; assay type: functional
[16] = Antibacterial activity against wild type Haemophilus influenzae Rd KW20 ATCC 51907 assessed as growth inhibition after 18 to 24 hrs by CLSI broth microdilution method; assay type: functional
Escherichia coli [17] = assay: Antibacterial activity against wild type Escherichia coli W3110 assessed as growth inhibition after 18 to 24 hrs by CLSI broth microdilution method; assay type: functional
Escherichia coli [18] = assay: Antibacterial activity against tolC efflux pump deficient Escherichia coli W3110 assessed as growth inhibition after 18 to 24 hrs by CLSI broth microdilution method; assay type: functional
[19] = Octanol-phosphate buffer partition coefficient, log D of the compound at pH 7.4 after 1 hr by shake flask method; assay type: physicochemical
[20] = Solubility of the compound; assay type: physicochemical
[21] = Unbound fraction in human at 10 uM after 16 hrs by LC-MS/MS analysis; assay type: ADME; details: plasma
[22] = Clearance in rat plasma at 10 mg/kg, iv administered 15 mins of infusion measured for 0 to 24 hrs by LC-MS/MS analysis; assay type: ADME, organism-based; parameters: dose 10 mg/kg, route intravenous
[23] = Volume of distribution at steady state in rat plasma at 10 mg/kg, iv administered 15 mins of infusion measured for 0 to 24 hrs by LC-MS/MS analysis; assay type: ADME, organism-based; parameters: dose 10 mg/kg, route intravenous; details: read-out: Vdss
Staphylococcus aureus [24] = assay: Inhibition of DNA synthesis in methicillin-sensitive wild type Staphylococcus aureus over 1 hr by [3H]thymidine incorporation assay; assay type: functional, organism-based
Staphylococcus aureus [25] = assay: Inhibition of RNA synthesis in methicillin-sensitive wild type Staphylococcus aureus over 1 hr by [3H]uridine incorporation assay; assay type: functional, organism-based
Staphylococcus aureus [26] = assay: Inhibition of protein synthesis in methicillin-sensitive wild type Staphylococcus aureus over 1 hr by [14C]leucine incorporation assay; assay type: functional, organism-based
Staphylococcus aureus [27] = assay: Inhibition of protein synthesis in methicillin-sensitive wild type Staphylococcus aureus over 1 hr by [14C]valine incorporation assay; assay type: functional, organism-based
Staphylococcus aureus [28] = assay: Inhibition of fatty acid synthesis in methicillin-sensitive wild type Staphylococcus aureus over 1 hr by [14C]acetic acid incorporation assay; assay type: functional, organism-based
Staphylococcus aureus [29] = assay: Inhibition of cell wall synthesis in methicillin-sensitive wild type Staphylococcus aureus over 1 hr by [14C]N-acetyl glucosamine incorporation assay; assay type: functional, organism-based
Streptococcus pneumoniae [30] = assay: Inhibition of DNA synthesis in Streptococcus pneumoniae D39 over 1 hr by [3H]thymidine incorporation assay; assay type: functional
Streptococcus pneumoniae [31] = assay: Inhibition of RNA synthesis in Streptococcus pneumoniae D39 over 1 hr by [3H]uridine incorporation assay; assay type: functional
Streptococcus pneumoniae [32] = assay: Inhibition of protein synthesis in Streptococcus pneumoniae D39 over 1 hr by [14C]leucine incorporation assay; assay type: functional; details: D39, 1 h
Streptococcus pneumoniae [33] = assay: Inhibition of protein synthesis in Streptococcus pneumoniae D39 over 1 hr by [14C]valine incorporation assay; assay type: functional; details: D39, 1 h
Streptococcus pneumoniae [34] = assay: Inhibition of fatty acid synthesis in Streptococcus pneumoniae D39 over 1 hr by [14C]acetic acid incorporation assay; assay type: functional; details: D39, 1 h
Streptococcus pneumoniae [35] = assay: Inhibition of cell wall synthesis in Streptococcus pneumoniae D39 over 1 hr by [14C]N-acetyl glucosamine incorporation assay; assay type: functional; details: D39, 1 h
[36] = Dissociation constant, pKa of the compound; assay type: physicochemical

Sequence of DNA gyrase subunit B (P0A0K8 whole entry): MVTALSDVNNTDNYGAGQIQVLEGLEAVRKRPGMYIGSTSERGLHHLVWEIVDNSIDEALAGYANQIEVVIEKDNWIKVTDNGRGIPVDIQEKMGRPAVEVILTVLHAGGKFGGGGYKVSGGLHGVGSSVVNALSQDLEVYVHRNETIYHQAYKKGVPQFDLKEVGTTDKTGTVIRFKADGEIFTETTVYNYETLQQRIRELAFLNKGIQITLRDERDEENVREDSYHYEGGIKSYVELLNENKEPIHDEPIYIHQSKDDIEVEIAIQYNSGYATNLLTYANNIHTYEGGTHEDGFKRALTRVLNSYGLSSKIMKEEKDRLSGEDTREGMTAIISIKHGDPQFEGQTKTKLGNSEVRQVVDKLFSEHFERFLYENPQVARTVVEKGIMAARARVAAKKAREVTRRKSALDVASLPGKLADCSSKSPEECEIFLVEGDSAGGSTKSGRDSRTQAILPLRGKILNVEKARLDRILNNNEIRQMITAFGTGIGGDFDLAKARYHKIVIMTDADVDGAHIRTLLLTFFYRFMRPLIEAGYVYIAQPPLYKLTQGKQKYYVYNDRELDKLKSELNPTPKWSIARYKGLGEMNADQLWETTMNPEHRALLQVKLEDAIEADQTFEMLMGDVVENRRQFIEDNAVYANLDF

SMILES | MIC [1] [µg/mL] | MIC [2] [µg/mL] | MIC [3] [µg/mL] | MIC [4] [µg/mL] | MIC [5] [µg/mL] | MIC [6] [µg/mL] | MIC [7] [µg/mL] | MIC [8] [µg/mL] | IC50 (DNA gyrase subunit B) [nM] | IC50 [10] [nM] | IC50 [11] [nM] | IC50 [12] [nM] | MIC [13] [µg/mL] | MIC (Staphylococcus aureus [14]) [µg/mL] | MIC (Staphylococcus aureus [15]) [µg/mL] | MIC (Moraxella catarrhalis) [µg/mL] | MIC [16] [µg/mL] | MIC (Escherichia coli [17]) [µg/mL] | MIC (Escherichia coli [18]) [µg/mL] | logD at 1 h [19] | other results
CN(C)[C@@H]1C(O)=C(C(N)=O)C(=O)[C@@]2(O)C(O)=C3C(=O)c4c(O)cccc4[C@@](C)(O)[C@H]3C[C@@H]12 [TETRACYCLINE] | 0.25 (≈ 0.563 µM) | 0.25 (≈ 0.563 µM) | 0.25 (≈ 0.563 µM) | 0.25 (≈ 0.563 µM) | 0.25 (≈ 0.563 µM) | 0.13 (≈ 0.293 µM) | 0.25 (≈ 0.563 µM) | 0.13 (≈ 0.293 µM) |  |  |  |  |  |  |  |  |  |  |  |  | MIC (Streptococcus pneumoniae [9]): 0.25 µg/mL (≈ 0.563 µM)
CCNC(=O)Nc1cc(-c2nc(C(F)(F)F)cs2)c(-c2cncc(C(N)=O)c2)cn1 |  |  |  |  |  |  |  |  | < 10 | 17 | 960 | 12 | 0.09 (≈ 0.206 µM) | 2.7 (≈ 6.19 µM) | 1.4 (≈ 3.21 µM) | 0.7 (≈ 1.6 µM) | 5.5 (≈ 12.6 µM) | > 64 | 1.6 (≈ 3.67 µM) | 2 | solubility [20]: 26 µM (≈ 11.3 µg/mL); fraction unbound at 16 h, 10 µM [21]: 0.36; clearance [22]: 120 mL/min/kg; Vd [23]: 1.5 L/kg; IC50 (Staphylococcus aureus [24]): 1600 nM; IC50 (Staphylococcus aureus [25]): 6900 nM; IC50 (Staphylococcus aureus [26]): 8800 nM; IC50 (Staphylococcus aureus [27]): 31000 nM; IC50 (Staphylococcus aureus [28]): > 200000 nM; IC50 (Staphylococcus aureus [29]): > 200000 nM; IC50 (Streptococcus pneumoniae [30]): 460 nM; IC50 (Streptococcus pneumoniae [31]): 830 nM; IC50 (Streptococcus pneumoniae [32]): 860 nM; IC50 (Streptococcus pneumoniae [33]): 1200 nM; IC50 (Streptococcus pneumoniae [34]): > 20000 nM; IC50 (Streptococcus pneumoniae [35]): > 20000 nM
C[C@H]1COc2c(N3CCN(C)CC3)c(F)cc3c(=O)c(C(=O)O)cn1c23.C[C@H]1COc2c(N3CCN(C)CC3)c(F)cc3c(=O)c(C(=O)O)cn1c23.O [LEVOFLOXACIN] | 0.5 | 1 | 1 | 0.5 | 0.5 | 16 | 16 | 32 |  |  |  |  |  | 0.13 | 4 |  |  |  |  |  | 
CCNC(=O)Nc1cc(-c2nc(C(F)(F)F)cs2)c(-c2cncc(-c3noc(=O)[nH]3)c2)cn1 |  |  |  |  |  |  |  |  | 14 | < 10 | 1500 | 11 | 0.74 (≈ 1.55 µM) | 48 (≈ 101 µM) | 48 (≈ 101 µM) | 24 (≈ 50.3 µM) | > 64 | > 64 | 12 (≈ 25.1 µM) | 0.28 | solubility [20]: 830 µM (≈ 396 µg/mL); fraction unbound at 16 h, 10 µM [21]: 0.011; pKa [36]: 5.4; clearance [22]: 360 mL/min/kg; Vd [23]: 3.5 L/kg
